Measured values from patent publication US8440617B2, “Hyperbaric treatment in wound healing” (The Trustees of the University of Pennsylvania, priority 2007, dated 2013).
Entries after “also recorded” stand apart in the source; their conditions may differ.

System: circulating EPCs (CXCR4+/VEGFR2+, Tie2+/VEGFR2+)
Assay: Circulating EPCs by flow cytometry in STZ-diabetic mice
Assay type: in vivo, mouse
Settings: diabetic mice treated with insulin
Description: Tie2-GFP, wild-type or chimeric FVB mice at 6-12 wk of age were treated with STZ (Sigma-Aldrich) to induce diabetes. Mice were rendered diabetic by i.p. administration of 60 mg/kg STZ in 50 mM sodium citrate, pH 4.5, daily for 5 d. Control mice were treated with daily injections of citrate buffer. Serum glucose was measured from the mouse tail vein using a glucometer. Once serum glucose reached 250 mg/dL, mice were followed with daily measurements for 1 wk prior to use in experiments. Serum glucose levels in STZ mice averaged 461 mg/dL with a range of 372-520 mg/dL, while control mice serum glucose mean level was 120 mg/dL with a range of 94-135 mg/dL. Wounds were induced on the ventral surface of the mouse thigh using a 4 mm punch biopsy. Full-thickness skin was removed, exposing the underlying muscle.
For HBO treatment, mice were placed in an animal hyperbaric chamber (Reneau Corp.) and subjected to 100% oxygen at 2.4 atmospheres absolute (ATA) for 90 min (Davis Wound Healing Protocol). To measure continuous, real-time BM NO levels, NO microelectrodes was inserted into the femoral marrow cavity as previously described. An osteotomy was created on the patellar surface of the murine femur using a 25 G beveled needle, allowing the electrode to be lowered into the marrow space when the animal was placed in the hyperbaric chamber. In some mice, pretreatment with L-NAME (40 mg/kg i.p.) (Sigma-Aldrich) was given 2 h prior to exposure to HBO.
Mobilization of EPCs into circulation was studied using flow cytometry as previously described. Cells isolated from mice were incubated with various Abs (BD Biosciences). Isotype matched mouse immunoglobulins served as controls. One million viable cells were analyzed per sample using an LSR2 multicolor flow cytometer (BD Biosciences). Data was analyzed using FlowJo software (Treestar, Inc.).
Physiologically, increased levels of BM NO result in activation of MMP-9 and conversion of kit ligand to its soluble form, ultimately generating EPC release into circulation. To study the effects of the hyperoxia-induced rise in NO levels in the marrow cavity on mobilization of EPCs into circulation, peripheral blood from diabetic mice was analyzed for EPCs using flow cytometry. A determination of whether hyperoxia, induced by HBO, increases the number of circulating EPCs in the peripheral blood of diabetic mice was made. Specifically, peripheral blood of diabetic mice was examined 18 h after a single HBO treatment. After excluding dead DAPI^+labeled cells, candidate lymphocytes, identified by their typical appearance on forward and side scatter, were gated and CD45^+/CD3^+cell populations were excluded. […] Therefore, several marker combinations were used to quantitate circulating EPCs. […]

“insulin: human insulin (NPH), 6 U/kg twice/d i.p.” was tested, and the EPC mobilization was “little effect; also recorded: does not increase”.
